These results are taken from patent US8729082B2, “Substituted imidazoquinoxalines” (Bayer Intellectual Property GmbH, priority 2009, dated 2014).

The structures appear in SMILES notation.

In this assay the target is T1, human kinase Mps-1 (Homo sapiens, UniProt P33981).
T1 construct: N-terminally GST-tagged human full length recombinant Mps-1 kinase; purchased Invitrogen, Karslruhe, Germany PV4071
T1 sequence (P33981 1-857): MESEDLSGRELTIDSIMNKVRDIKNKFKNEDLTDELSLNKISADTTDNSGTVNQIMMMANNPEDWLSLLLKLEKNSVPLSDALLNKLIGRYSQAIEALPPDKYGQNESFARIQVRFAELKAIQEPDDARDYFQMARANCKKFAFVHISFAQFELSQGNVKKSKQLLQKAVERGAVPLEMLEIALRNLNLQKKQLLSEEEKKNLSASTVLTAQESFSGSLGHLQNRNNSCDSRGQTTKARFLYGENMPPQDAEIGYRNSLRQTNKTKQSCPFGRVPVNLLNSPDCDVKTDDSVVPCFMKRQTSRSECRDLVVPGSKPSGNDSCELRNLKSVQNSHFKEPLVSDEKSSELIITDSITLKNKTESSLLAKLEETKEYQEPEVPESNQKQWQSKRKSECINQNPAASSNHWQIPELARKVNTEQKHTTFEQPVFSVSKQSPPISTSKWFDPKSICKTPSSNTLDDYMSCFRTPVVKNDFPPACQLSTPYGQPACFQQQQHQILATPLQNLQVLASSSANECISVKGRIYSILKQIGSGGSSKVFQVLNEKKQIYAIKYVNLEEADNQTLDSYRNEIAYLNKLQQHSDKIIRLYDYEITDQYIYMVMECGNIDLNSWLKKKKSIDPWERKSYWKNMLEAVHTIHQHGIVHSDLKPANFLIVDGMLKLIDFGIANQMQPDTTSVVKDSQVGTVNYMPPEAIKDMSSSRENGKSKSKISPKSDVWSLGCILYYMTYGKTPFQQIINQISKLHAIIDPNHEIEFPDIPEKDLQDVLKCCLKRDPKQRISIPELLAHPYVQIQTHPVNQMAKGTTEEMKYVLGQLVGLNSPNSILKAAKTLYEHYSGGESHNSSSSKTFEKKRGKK
Put plainly: Mps-1 kinase assay (HTRF). The class given is biochemical. To be noted: lowATP; mean; read-out: Mps1 lowATP mean IC50. The method in brief:
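HTRF readout: EDTA-stopped reactions incubated 1 h with europium anti-phospho(Ser/Thr) antibody and streptavidin-XLent, emission ratio 665/620 nm after 350 nm excitation. Kinase step: compound pre-bound 15 min to ~1 nM GST-Mps-1, then 60 min at 22 °C with ATP and biotin-peptide substrate; inhibition scaled between no-inhibitor (0%) and no-enzyme (100%) controls.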
On the technique in general: In TR-FRET formats the signal depends on donor and acceptor labels being close together.
Usually IC50 stands for the midpoint of a concentration-inhibition curve. For `CC(=O)NCCNc1nc2cc(F)c(F)cc2n2c(-c3ccc(C(=O)NC4CC4)c(Cl)c3)cnc12` [Example 2-132, 4-(4-{[2-(acetylamino)ethyl]amino}-7,8-difluoroimidazo[1,2-a]quinoxalin-1-yl)-2-chloro-N-cyclopropylbenzamide], the IC50 stood at 7740 nM. The result for `O=C(NC1CC1)c1ccc(-c2cnc3c(NCCCn4ccnc4)nc4cc(F)c(F)cc4n23)cc1Cl` [Example 2-133, 2-chloro-N-cyclopropyl-4-(7,8-difluoro-4-{[3-(1H-imidazol-1-yl)propyl]amino}imidazo[1,2-a]quinoxalin-1-yl)benzamide] reads 3290 nM; that for `O=C(NC1CC1)c1ccc(-c2cnc3c(NCc4ccccn4)nc4cc(F)c(F)cc4n23)cc1Cl` [Example 2-134, 2-chloro-N-cyclopropyl-4-{7,8-difluoro-4-[(pyridin-2-ylmethyl)amino]imidazo[1,2-a]quinoxalin-1-yl}benzamide], 6700 nM. Consider `O=C(NC1CC1)c1ccc(-c2cnc3c(NCc4cccnc4)nc4cc(F)c(F)cc4n23)cc1Cl` [Example 2-135, 2-chloro-N-cyclopropyl-4-{7,8-difluoro-4-[(pyridin-3-ylmethyl)amino]imidazo[1,2-a]quinoxalin-1-yl}benzamide], for which the IC50 is 1580 nM. For `O=C(NC1CC1)c1ccc(-c2cnc3c(NCc4ccncc4)nc4cc(F)c(F)cc4n23)cc1Cl` [Example 2-136, 2-chloro-N-cyclopropyl-4-{7,8-difluoro-4-[(pyridin-4-ylmethyl)amino]imidazo[1,2-a]quinoxalin-1-yl}benzamide], the IC50 was determined as 1710 nM. With `CC(C)CNc1nc2cc(F)c(F)cc2n2c(-c3ccc(C(=O)NC4CC4)c(Cl)c3)cnc12` [Example 2-137, 2-chloro-N-cyclopropyl-4-{7,8-difluoro-4-[(2-methylpropyl)amino]imidazo[1,2-a]quinoxalin-1-yl}benzamide] the figure was 391 nM. Turning to `NC(=O)CCNc1nc2cc(F)c(F)cc2n2c(-c3ccc(C(=O)NC4CC4)c(Cl)c3)cnc12` [Example 2-138, 4-{4-[(3-amino-3-oxopropyl)amino]-7,8-difluoroimidazo[1,2-a]quinoxalin-1-yl}-2-chloro-N-cyclopropylbenzamide], the IC50 worked out at 11200 nM. For the compound `COCCCNc1nc2cc(F)c(F)cc2n2c(-c3ccc(C(=O)NC4CC4)c(Cl)c3)cnc12` [Example 2-139, 2-chloro-N-cyclopropyl-4-{7,8-difluoro-4-[(3-methoxypropyl)amino]imidazo[1,2-a]quinoxalin-1-yl}benzamide], the IC50 is 3850 nM.

Turning to `CC(C)(C)OC(=O)NCCCNc1nc2cc(F)c(F)cc2n2c(-c3ccc(C(=O)NC4CC4)c(Cl)c3)cnc12` [Example 2-140, tert-butyl [3-({1-[3-chloro-4-(cyclopropylcarbamoyl)phenyl]-7,8-difluoroimidazo[1,2-a]quinoxalin-4-yl}amino)propyl]carbamate], the IC50 stood at 3410 nM. For `Cn1ccc(CNc2nc3cc(F)c(F)cc3n3c(-c4ccc(C(=O)NC5CC5)c(Cl)c4)cnc23)n1` [Example 2-141, 2-chloro-N-cyclopropyl-4-(7,8-difluoro-4-{[(1-methyl-1H-pyrazol-3-yl)methyl]amino}imidazo[1,2-a]quinoxalin-1-yl)benzamide], the IC50 came out at 4450 nM. Regarding `Cn1cc(CNc2nc3cc(F)c(F)cc3n3c(-c4ccc(C(=O)NC5CC5)c(Cl)c4)cnc23)cn1` [Example 2-142, 2-chloro-N-cyclopropyl-4-(7,8-difluoro-4-{[(1-methyl-1H-pyrazol-4-yl)methyl]amino}imidazo[1,2-a]quinoxalin-1-yl)benzamide], the IC50 was determined as 2280 nM. As for `NS(=O)(=O)CCNc1nc2cc(F)c(F)cc2n2c(-c3ccc(C(=O)NC4CC4)c(Cl)c3)cnc12` [Example 2-143, 2-chloro-N-cyclopropyl-4-{7,8-difluoro-4-[(2-sulfamoylethyl)amino]imidazo[1,2-a]quinoxalin-1-yl}benzamide], the IC50 was 1240 nM. The result for `CCCNc1nc2cc(C)c(C)cc2n2c(-c3ccc(C(=O)NC4CC4)cc3)cnc12` [Example 2-144, N-cyclopropyl-4-[7,8-dimethyl-4-(propylamino)imidazo[1,2-a]quinoxalin-1-yl]benzamide] reads 4.15 nM; that for `Cc1cc2nc(NCCC(C)C)c3ncc(-c4ccc(C(=O)NC5CC5)cc4)n3c2cc1C` [Example 2-145, N-cyclopropyl-4-{7,8-dimethyl-4-[(3-methylbutyl)amino]imidazo[1,2-a]quinoxalin-1-yl}benzamide], 5.61 nM; that for `Cc1cc2nc(NCCCCO)c3ncc(-c4ccc(C(=O)NC5CC5)cc4)n3c2cc1C` [Example 2-146, N-cyclopropyl-4-{4-[(4-hydroxybutyl)amino]-7,8-dimethylimidazo[1,2-a]quinoxalin-1-yl}benzamide], 2.83 nM. As to `CCNc1nc2cc(C)c(C)cc2n2c(-c3ccc(C(=O)NC4CC4)cc3)cnc12` [Example 2-147, N-cyclopropyl-4-[4-(ethylamino)-7,8-dimethylimidazo[1,2-a]quinoxalin-1-yl]benzamide], the IC50 was 4.5 nM.

For `Cc1cc2nc(NCCCO)c3ncc(-c4ccc(C(=O)NC5CC5)cc4)n3c2cc1C` [Example 2-148, N-cyclopropyl-4-{4-[(3-hydroxypropyl)amino]-7,8-dimethylimidazo[1,2-a]quinoxalin-1-yl}benzamide], the IC50 was 5.92 nM.

Consider `CCCCNc1nc2cc(C)c(C)cc2n2c(-c3ccc(C(=O)NC4CC4)cc3)cnc12` [Example 2-149, 4-[4-(butylamino)-7,8-dimethylimidazo[1,2-a]quinoxalin-1-yl]-N-cyclopropylbenzamide], for which the IC50 turned out to be 2.86 nM.

Regarding `Cc1cc2nc(NCC3CC3)c3ncc(-c4ccc(C(=O)NC5CC5)cc4)n3c2cc1C` [Example 2-150, N-cyclopropyl-4-{4-[(cyclopropylmethyl)amino]-7,8-dimethylimidazo[1,2-a]quinoxalin-1-yl}benzamide], the IC50 turned out to be 2.64 nM. With `Cc1cc2nc(NCc3ccccn3)c3ncc(-c4ccc(C(=O)NC5CC5)cc4)n3c2cc1C` [Example 2-151, N-cyclopropyl-4-{7,8-dimethyl-4-[(pyridin-2-ylmethyl)amino]imidazo[1,2-a]quinoxalin-1-yl}benzamide] the figure was 19.5 nM; with `Cc1cc2nc(NCc3cccnc3)c3ncc(-c4ccc(C(=O)NC5CC5)cc4)n3c2cc1C` [Example 2-152, N-cyclopropyl-4-{7,8-dimethyl-4-[(pyridin-3-ylmethyl)amino]imidazo[1,2-a]quinoxalin-1-yl}benzamide], 6.01 nM. Take `Cc1cc2nc(NCc3ccco3)c3ncc(-c4ccc(C(=O)NC5CC5)cc4)n3c2cc1C` [Example 2-153, N-cyclopropyl-4-{4-[(furan-2-ylmethyl)amino]-7,8-dimethylimidazo[1,2-a]quinoxalin-1-yl}benzamide]: the IC50 amounted to 5.22 nM. With `Cc1cc2nc(NCC(C)C)c3ncc(-c4ccc(C(=O)NC5CC5)cc4)n3c2cc1C` [Example 2-154, N-cyclopropyl-4-{7,8-dimethyl-4-[(2-methylpropyl)amino]imidazo[1,2-a]quinoxalin-1-yl}benzamide] the figure was 2.22 nM; with `COCCCNc1nc2cc(C)c(C)cc2n2c(-c3ccc(C(=O)NC4CC4)cc3)cnc12` [Example 2-155, N-cyclopropyl-4-{4-[(3-methoxypropyl)amino]-7,8-dimethylimidazo[1,2-a]quinoxalin-1-yl}benzamide], 7.71 nM; with `Cc1cc2nc(NCc3ccn(C)n3)c3ncc(-c4ccc(C(=O)NC5CC5)cc4)n3c2cc1C` [Example 2-156, N-cyclopropyl-4-(7,8-dimethyl-4-{[(1-methyl-1H-pyrazol-3-yl)methyl]amino}imidazo[1,2-a]quinoxalin-1-yl)benzamide], 8.49 nM. Take `Cc1cc2nc(NCc3cnn(C)c3)c3ncc(-c4ccc(C(=O)NC5CC5)cc4)n3c2cc1C` [Example 2-157, N-cyclopropyl-4-(7,8-dimethyl-4-{[(1-methyl-1H-pyrazol-4-yl)methyl]amino}imidazo[1,2-a]quinoxalin-1-yl)benzamide]: the IC50 was 5.44 nM. In the case of `CCCNc1nc2cc(C)c(C)cc2n2c(-c3ccc(NC(=O)NC)cc3)cnc12` [Example 2-159, 1-{4-[7,8-dimethyl-4-(propylamino)imidazo[1,2-a]quinoxalin-1-yl]phenyl}-3-methylurea], the IC50 came out at 163 nM. For the compound `CNC(=O)Nc1ccc(-c2cnc3c(NCCCN4CCOCC4)nc4cc(C)c(C)cc4n23)cc1` [Example 2-160, 1-[4-(7,8-dimethyl-4-{[3-(morpholin-4-yl)propyl]amino}imidazo[1,2-a]quinoxalin-1-yl)phenyl]-3-methylurea], the IC50 came to 982 nM.
